≈ marks a conversion by molar mass, not a printed value. Where two headings read alike, the source gives them in different places.
Legend:
S. aureus 13709 [1] = experiment: Minimum Inhibitory Concentration (MIC) of antibiotics with or without thixogel; assay type: cell-based, Staphylococcus aureus
Description: (§1) The Minimum Inhibitory Concentration (MIC) defines the lowest antibiotic concentration that inhibits 99.9% of bacterial growth.

P. aeruginosa 27853 [2] = experiment: as above; assay type: cell-based, Pseudomonas aeruginosa
Description: as §1

S. aureus 13709 [3] = experiment: Kill kinetics of ciprofloxacin with or without gels; assay type: cell-based, Staphylococcus aureus
Experimental: (§2) Growth was measured by sampling media placed above the thixogel and then quantifying colony forming units (CFU's) by serial dilution.

P. aeruginosa 27853 [4] = experiment: as above; assay type: cell-based, Pseudomonas aeruginosa
Experimental: as §2

[5] = ciprofloxacin 30 μg/mL loaded in HA and SF gels

C[C@@H](O)[C@H]1C(=O)N2C(C(=O)O)=C(SCCN=CN)C[C@H]12 [Imipenem, imipenem]
MIC (S. aureus 13709 [1]; Staphylococcus aureus, 13709, S. aureus 13709, No Gel, read-out: Minimum Inhibitory Concentrations (MIC)): 0.032 µg/mL (≈ 0.107 µM)
MIC (S. aureus 13709 [1]; Staphylococcus aureus, 13709, S. aureus 13709, antibiotic delivered in HA thixogel, read-out: Minimum Inhibitory Concentrations (MIC)): < 0.032 µg/mL
MIC (S. aureus 13709 [1]; Staphylococcus aureus, 13709, S. aureus 13709, antibiotic delivered in SF thixogel, read-out: Minimum Inhibitory Concentrations (MIC)): 0.125 µg/mL (≈ 0.418 µM)
MIC (P. aeruginosa 27853 [2]; Pseudomonas aeruginosa, 27853, P. aeruginosa 27853, No Gel, read-out: Minimum Inhibitory Concentrations (MIC)): 2 µg/mL (≈ 6.68 µM)
MIC (P. aeruginosa 27853 [2]; Pseudomonas aeruginosa, 27853, P. aeruginosa 27853, antibiotic delivered in HA thixogel, read-out: Minimum Inhibitory Concentrations (MIC)): 4 µg/mL (≈ 13.4 µM)
MIC (P. aeruginosa 27853 [2]; Pseudomonas aeruginosa, 27853, P. aeruginosa 27853, antibiotic delivered in SF thixogel, read-out: Minimum Inhibitory Concentrations (MIC)): > 4 µg/mL

gentamycin
effect of the gels (SF and HA) upon potency (S. aureus 13709 [1]; S. aureus): deleterious effect upon potency
Minimum Inhibitory Concentrations (MIC) (S. aureus 13709 [1]; S. aureus 13709, No Gel): 1 µg/mL
Minimum Inhibitory Concentrations (MIC) (S. aureus 13709 [1]; S. aureus 13709, antibiotic delivered in HA thixogel): 32 µg/mL
Minimum Inhibitory Concentrations (MIC) (S. aureus 13709 [1]; S. aureus 13709, antibiotic delivered in SF thixogel): 8 µg/mL
effect of the gels (SF and HA) upon potency (P. aeruginosa 27853 [2]; P. aeruginosa): deleterious effect upon potency
Minimum Inhibitory Concentrations (MIC) (P. aeruginosa 27853 [2]; P. aeruginosa 27853, No Gel): 2 µg/mL
Minimum Inhibitory Concentrations (MIC) (P. aeruginosa 27853 [2]; P. aeruginosa 27853, antibiotic delivered in HA thixogel): 32 µg/mL
Minimum Inhibitory Concentrations (MIC) (P. aeruginosa 27853 [2]; P. aeruginosa 27853, antibiotic delivered in SF thixogel): 32 µg/mL

CN[C@H](CC(C)C)C(=O)N[C@H]1C(=O)N[C@@H](CC(N)=O)C(=O)N[C@H]2C(=O)N[C@H]3C(=O)N[C@H](C(=O)N[C@H](C(=O)O)c4cc(O)cc(O)c4-c4cc3ccc4O)[C@H](O)c3ccc(c(Cl)c3)Oc3cc2cc(c3O[C@@H]2O[C@H](CO)[C@@H](O)[C@H](O)[C@H]2O[C@H]2C[C@](C)(N)[C@H](O)[C@H](C)O2)Oc2ccc(cc2Cl)[C@H]1O [Vancomycin, vancomycin]
potency / coverage of both pathogenic bacteria (S. aureus 13709 [1]; S. aureus (Gram positive)): did not give coverage of both
MIC (S. aureus 13709 [1]; Staphylococcus aureus, 13709, read-out: Minimum Inhibitory Concentrations (MIC), S. aureus 13709, No Gel): 2 µg/mL (≈ 1.38 µM)
MIC (S. aureus 13709 [1]; Staphylococcus aureus, 13709, read-out: Minimum Inhibitory Concentrations (MIC), S. aureus 13709, antibiotic delivered in HA thixogel): 16 µg/mL (≈ 11 µM)
MIC (S. aureus 13709 [1]; Staphylococcus aureus, 13709, read-out: Minimum Inhibitory Concentrations (MIC), S. aureus 13709, antibiotic delivered in SF thixogel): 4 µg/mL (≈ 2.76 µM)
potency / coverage of both pathogenic bacteria (P. aeruginosa 27853 [2]; P. aeruginosa (Gram negative)): did not give coverage of both
MIC (P. aeruginosa 27853 [2]; Pseudomonas aeruginosa, 27853, read-out: Minimum Inhibitory Concentrations (MIC), P. aeruginosa 27853, No Gel): > 4 µg/mL
MIC (P. aeruginosa 27853 [2]; Pseudomonas aeruginosa, 27853, read-out: Minimum Inhibitory Concentrations (MIC), P. aeruginosa 27853, antibiotic delivered in HA thixogel): > 32 µg/mL
MIC (P. aeruginosa 27853 [2]; Pseudomonas aeruginosa, 27853, read-out: Minimum Inhibitory Concentrations (MIC), P. aeruginosa 27853, antibiotic delivered in SF thixogel): > 32 µg/mL

O=C(O)c1cn(C2CC2)c2cc(N3CCNCC3)c(F)cc2c1=O [Ciprofloxacin, ciprofloxacin]
inhibition at 30 µg/mL (S. aureus 13709 [3]; Staphylococcus aureus, 13709, gel loaded drug, 30 μg/mL, read-out: inhibition of bacterial growth): 100%
time to complete inhibition of bacterial growth (S. aureus 13709 [3]; [5]): around four
inhibition of bacterial growth (S. aureus 13709 [3]; gel loaded drug, 30 μg/mL): more than 3 log10
inhibition at 30 µg/mL (P. aeruginosa 27853 [4]; Pseudomonas aeruginosa, 27853, gel loaded drug, 30 μg/mL, read-out: inhibition of bacterial growth): 100%
time to complete inhibition of bacterial growth (P. aeruginosa 27853 [4]; [5]): around four
inhibition of bacterial growth (P. aeruginosa 27853 [4]; gel loaded drug, 30 μg/mL): more than 3 log10

— patent US20260174871A1, “THIXOTROPIC DELIVERY SYSTEMS” (UNIVERSITY OF MONTANA, priority 2019, published 2026)
